Assay results as given in PMC8248439, “Activation, Structure, Biosynthesis and Bioactivity of Glidobactin‐like Proteasome Inhibitors from Photorhabdus laumondii” (Chembiochem, 2021).
Where two headings read alike, the source gives them in different places.

What was measured:
Assay type in all cases: biochemical
[1] = target: T1, yeast 20S proteasome (yCP) β2 subunit (TL) (Saccharomyces cerevisiae, UniProt P25043); experiment: X-ray crystal structure ([…] Å), mM soaking; weaker TL inhibition
T1 construct: gene PUP1; yeast 20S proteasome core particle
T1 sequence (P25043 30-261): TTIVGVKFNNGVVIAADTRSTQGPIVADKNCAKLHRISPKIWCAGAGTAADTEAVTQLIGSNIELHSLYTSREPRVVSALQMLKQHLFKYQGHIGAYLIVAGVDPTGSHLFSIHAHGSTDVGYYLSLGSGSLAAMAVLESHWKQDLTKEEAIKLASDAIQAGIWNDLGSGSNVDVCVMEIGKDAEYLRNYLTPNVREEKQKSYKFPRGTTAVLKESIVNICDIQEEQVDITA

[2] = target: T2, yeast 20S proteasome (yCP) β5 subunit (ChTL) (Saccharomyces cerevisiae, UniProt P23724+P30656); experiment: X-ray crystal structure ([…] Å) and ChTL activity inhibition assay of yCP
T2 construct: gene PRE2; yeast 20S proteasome core particle; with β6 subunit of yCP
T2 sequence (P30656 76-287): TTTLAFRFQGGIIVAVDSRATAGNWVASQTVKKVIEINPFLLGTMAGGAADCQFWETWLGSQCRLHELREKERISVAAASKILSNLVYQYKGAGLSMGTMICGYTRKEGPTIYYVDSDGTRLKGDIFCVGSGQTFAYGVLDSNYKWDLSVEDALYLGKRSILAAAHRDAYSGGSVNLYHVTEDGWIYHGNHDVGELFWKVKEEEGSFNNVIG
T2 sequence (P23724 20-241): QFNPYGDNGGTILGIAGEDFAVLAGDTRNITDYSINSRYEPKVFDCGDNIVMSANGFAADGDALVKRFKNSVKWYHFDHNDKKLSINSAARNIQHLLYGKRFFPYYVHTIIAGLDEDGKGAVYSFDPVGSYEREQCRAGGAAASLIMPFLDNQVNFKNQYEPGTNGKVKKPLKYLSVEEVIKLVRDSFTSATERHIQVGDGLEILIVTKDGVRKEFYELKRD

[3] = target: T2, yeast 20S proteasome (yCP) β5 subunit (ChTL); experiment: as above; remark: listed apart in the source
[4] = target: T1, yeast 20S proteasome (yCP) β2 subunit (TL); experiment: X-ray crystal structure ([…] Å), mM soaking; weaker TL inhibition; remark: listed apart in the source

SMILES | IC50 [1] | IC50 [2] | IC50 [3] | IC50 [4]
CC1C=CC(=O)NCCC(O)CC(NC(=O)C(NC(=O)C=Cc2ccccc2)C(C)O)C(=O)N1 (stereo not shown) [compound 5] | > 200 nM | 107 nM |  | 
CC1C=CC(=O)NCCC(O)CC(NC(=O)C(NC(=O)C=CC=Cc2ccccc2)C(C)O)C(=O)N1 (stereo not shown) [compound 4] |  |  | 73 nM | > 200 nM
